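48-hour exposure; five concentrations; linearly interpolated endpoints. The concentration for 50% growth inhibition is given as GI50.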 Activity calls are given as the source filed them. No stated cut-off is given here; in the data, active = GI50 up to about 1.1 µM and inactive = higher.
Key:
Test in all cases: NCI tumour cell line growth inhibition, 48 h
RPMI-8226 = tested on: RPMI-8226
DLD-1 = tested on: DLD-1
OVCAR-3 = tested on: OVCAR-3
HCT-15 = tested on: HCT-15
SF-295 = tested on: SF-295
RXF 393 = tested on: RXF 393
SK-MEL-5 = tested on: SK-MEL-5
COLO 205 = tested on: COLO 205
RXF 631 = tested on: RXF 631
HCC 2998 = tested on: HCC 2998
SNB-19 = tested on: SNB-19
NCI-H522 = tested on: NCI-H522
SF-268 = tested on: SF-268
LOX IMVI = tested on: LOX IMVI
EKVX = tested on: EKVX
UACC-62 = tested on: UACC-62
DMS-273 = tested on: DMS-273
UO-31 = tested on: UO-31
NCI-H23 = tested on: NCI-H23
K562 = tested on: K562
HOP-92 = tested on: HOP-92
U-251 = tested on: U-251
OVCAR-4 = tested on: OVCAR-4
SNB-75 = tested on: SNB-75
OVCAR-8 = tested on: OVCAR-8
A498 = tested on: A498
SF-539 = tested on: SF-539
NCI-H226 = tested on: NCI-H226
ACHN = tested on: ACHN
UACC-257 = tested on: UACC-257
A549 = tested on: A549
Malme-3M = tested on: Malme-3M
XF498 = tested on: XF498
M19-MEL = tested on: M19-MEL
KM-20L2 = tested on: KM-20L2
SK-MEL-2 = tested on: SK-MEL-2
NCI-H460 = tested on: NCI-H460
CCRF-CEM = tested on: CCRF-CEM
OVCAR-5 = tested on: OVCAR-5
CAKI-1 = tested on: CAKI-1
786-0 = tested on: 786-0
TK-10 = tested on: TK-10
MOLT-4 = tested on: MOLT-4
HCT-116 = tested on: HCT-116
KM12 = tested on: KM12
SN12C = tested on: SN12C
IGROV-1 = tested on: IGROV-1
SK-MEL-28 = tested on: SK-MEL-28
DMS-114 = tested on: DMS-114
SNB-78 = tested on: SNB-78
LXFL 529 = tested on: LXFL 529
HOP-62 = tested on: HOP-62
HT-29 = tested on: HT-29
SW-620 = tested on: SW-620
M14 = tested on: M14

With `O=C(/N=C(/Nc1ccccc1)SCS/C(=N\C(=O)c1ccco1)Nc1ccccc1)c1ccco1` the GI50 (RPMI-8226) was > 100 µM (inactive), the GI50 (DLD-1) was 44 µM (inactive) and the GI50 (OVCAR-3) was 40.8 µM (inactive). For the same compound, the GI50 (HCT-15) was > 100 µM, the GI50 (SF-295) was 26.5 µM (inactive) and the GI50 (RXF 393) was 15.1 µM (inactive). The GI50 (SK-MEL-5) was 61.5 µM (inactive), the GI50 (COLO 205) was > 100 µM (inactive) and the GI50 (RXF 631) was 94.4 µM (inactive). The GI50 (HCC 2998) was 53.7 µM (inactive), the GI50 (SNB-19) was 24 µM (inactive) and the GI50 (NCI-H522) was 27.4 µM (inactive). The GI50 (SF-268) was 22.5 µM (inactive), the GI50 (LOX IMVI) was > 100 µM (inactive) and the GI50 (EKVX) was 33.9 µM (inactive). For the same compound, the GI50 (UACC-62) was > 100 µM (inactive), the GI50 (DMS-273) was 37.8 µM (inactive) and the GI50 (UO-31) was 44.8 µM (inactive). For the same compound, the GI50 (NCI-H23) was 24.4 µM (inactive), the GI50 (K562) was > 100 µM (inactive) and the GI50 (HOP-92) was 18.7 µM (inactive). The GI50 (U-251) was 32 µM (inactive), the GI50 (OVCAR-4) was 82.2 µM (inactive) and the GI50 (SNB-75) was 16.9 µM (inactive). The GI50 (OVCAR-8) was 50.6 µM (inactive), the GI50 (A498) was 27.1 µM (inactive) and the GI50 (SF-539) was 23.2 µM (inactive). For the same compound, the GI50 (NCI-H226) was 28 µM (inactive), the GI50 (ACHN) was 38.8 µM (inactive) and the GI50 (UACC-257) was > 100 µM (inactive). For the same compound, the GI50 (A549) was 41.5 µM (inactive), the GI50 (Malme-3M) was > 100 µM (inactive) and the GI50 (XF498) was 25.4 µM (inactive). For the same compound, the GI50 (M19-MEL) was > 100 µM (inactive), the GI50 (KM-20L2) was > 100 µM (inactive) and the GI50 (SK-MEL-2) was 80.2 µM (inactive). For the same compound, the GI50 (NCI-H460) was > 100 µM (inactive), the GI50 (CCRF-CEM) was > 100 µM (inactive) and the GI50 (OVCAR-5) was > 100 µM (inactive). The GI50 (CAKI-1) was 29.4 µM (inactive), the GI50 (786-0) was 35.2 µM (inactive) and the GI50 (TK-10) was 29.4 µM (inactive). The GI50 (MOLT-4) was > 100 µM (inactive), the GI50 (HCT-116) was 37.2 µM (inactive) and the GI50 (KM12) was > 100 µM (inactive). For the same compound, the GI50 (SN12C) was 84.1 µM (inactive), the GI50 (IGROV-1) was 63.4 µM (inactive) and the GI50 (SK-MEL-28) was > 100 µM (inactive). For the same compound, the GI50 (DMS-114) was 52 µM (inactive), the GI50 (SNB-78) was 37.1 µM (inactive) and the GI50 (LXFL 529) was > 100 µM (inactive). For the same compound, the GI50 (HOP-62) was 19.5 µM (inactive), the GI50 (HT-29) was > 100 µM (inactive) and the GI50 (SW-620) was > 100 µM (inactive). For the same compound, the GI50 (M14) was > 100 µM (inactive).
